# Test results from patent publication US20250312462A1, “PAK1 DEGRADERS AND METHODS OF USE THEREOF” (INSTITUTE FOR CANCER RESEARCH D/B/A THE RESEARCH INSTITUTE …, priority 2022, published 2025).
# Experiments:
# PAK4 = PAK4 (Homo sapiens, UniProt O96013); assay: Z'-LYTE FRET kinase inhibition assay; format: biochemical; parameters: purchased Invitrogen
# Text: […]. […] […].
# SLK = SLK (Homo sapiens, UniProt Q9H2G2); assay: KINOMEscan; settings: read-out: Percent Control
# Method: (§1) The kinase engagement assay (KINOMEscan®) was performed by DiscoverX assessing binding abilities toward a set of kinases.
# STK16 = STK16 (Homo sapiens, UniProt O75716); assay: KINOMEscan; settings: read-out: Percent Control
# Method: as §1
# PIK3C2G = PIK3C2G (Homo sapiens, UniProt O75747); assay: KINOMEscan; settings: read-out: Percent Control
# Method: as §1
# CDKL3 = CDKL3 (Homo sapiens, UniProt Q8IVW4); assay: KINOMEscan; settings: read-out: Percent Control
# Method: as §1
# CSNK1G3 = CSNK1G3 (Homo sapiens, UniProt Q9Y6M4); assay: KINOMEscan; settings: read-out: Percent Control
# Method: as §1
# HPK1 = HPK1 (Homo sapiens, UniProt Q92918); assay: KINOMEscan; settings: read-out: Percent Control
# Method: as §1
# NLK = NLK (Homo sapiens, UniProt Q9UBE8); assay: KINOMEscan; settings: read-out: Percent Control
# Method: as §1
# NEK6 = NEK6 (Homo sapiens, UniProt Q9HC98); assay: KINOMEscan; settings: read-out: Percent Control
# Method: as §1
# CSNK1A1L = CSNK1A1L (Homo sapiens, UniProt Q8N752); assay: KINOMEscan; settings: read-out: Percent Control
# Method: as §1
# PIP5K1C = PIP5K1C (Homo sapiens, UniProt O60331); assay: KINOMEscan; settings: read-out: Percent Control
# Method: as §1
# TAK1 = TAK1 (Homo sapiens, UniProt O43318); assay: KINOMEscan; settings: read-out: Percent Control
# Method: as §1
# PRKR = PRKR (Homo sapiens, UniProt P19525); assay: KINOMEscan; settings: read-out: Percent Control
# Method: as §1
# FGFR2 = FGFR2 (Homo sapiens, UniProt P21802); assay: KINOMEscan; settings: read-out: Percent Control
# Method: as §1
# DCAMKL2 = DCAMKL2 (Homo sapiens, UniProt Q8N568); assay: KINOMEscan; settings: read-out: Percent Control
# Method: as §1
# SGK3 = SGK3 (Homo sapiens, UniProt Q96BR1); assay: KINOMEscan; settings: read-out: Percent Control
# Method: as §1
# PAK1 = PAK1 (Homo sapiens, UniProt Q13153); assay: Global multiplexed mass spectrometry proteomics in MOLT4 cells; format: cell-based; parameters: endogenous in cells; host or cells: MOLT4; settings: 1 μM, 5 hours
# Method: MOLT4 cells were treated with DMSO in biological triplicate and 1 μM BJG-05-039 for 5 hours and harvested by centrifugation. Cell lysis was performed by the addition of Urea buffer (8 M Urea, 50 mM NaCl, 50 mM 4-(2-hydroxyethyl)-1-piperazineethanesulfonic acid (EPPS) pH 8.5, Protease and Phosphatase inhibitors) followed by manual homogenization by 20 passes through a 21-gauge (1.25 in. long) needle. Lysate was clarified by centrifugation at 4° C. and protein quantified using bradford (Bio-Rad) assay. 100 μg of protein for each sample was reduced, alkylated and precipitated using methanol/chloroform as described (Donovan, et al. (2018) Elife 7: e38430). The resulting precipitated protein was resuspended in 4 M Urea, 50 mM HEPES pH 7.4, buffer for solubilization, followed by dilution to 1 M urea with the addition of 200 mM EPPS, pH 8. Proteins were digested for 12 hours at room temperature with LysC (1:50 ratio), followed by dilution to 0.5 M urea and a second digestion step was performed by addition of trypsin (1:50 ratio) for 6 hours at 37° C. […]
# Quantification was performed using a MS3-based TMT method as described (Donovan et al. (2020) Cell 183(6):1714-1731). […]
# Proteome Discoverer 2.4 (Thermo Fisher Scientific) was used for .RAW file processing and controlling peptide and protein level false discovery rates, assembling proteins from peptides, and protein quantification from peptides. […]
# CSNK1G3, sequence (Q9Y6M4 whole entry): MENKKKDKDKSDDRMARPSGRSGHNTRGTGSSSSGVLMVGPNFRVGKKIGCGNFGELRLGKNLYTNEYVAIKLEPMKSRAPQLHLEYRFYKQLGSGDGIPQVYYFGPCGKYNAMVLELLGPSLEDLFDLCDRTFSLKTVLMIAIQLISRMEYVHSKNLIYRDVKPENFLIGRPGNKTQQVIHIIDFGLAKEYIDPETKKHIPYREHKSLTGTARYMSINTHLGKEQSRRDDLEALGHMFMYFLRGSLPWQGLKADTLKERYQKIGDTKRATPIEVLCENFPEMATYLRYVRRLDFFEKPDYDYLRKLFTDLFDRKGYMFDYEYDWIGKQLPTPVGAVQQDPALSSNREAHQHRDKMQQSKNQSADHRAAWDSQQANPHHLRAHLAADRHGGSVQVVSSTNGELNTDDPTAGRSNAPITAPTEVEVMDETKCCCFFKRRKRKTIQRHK
# STK16, sequence (O75716 whole entry): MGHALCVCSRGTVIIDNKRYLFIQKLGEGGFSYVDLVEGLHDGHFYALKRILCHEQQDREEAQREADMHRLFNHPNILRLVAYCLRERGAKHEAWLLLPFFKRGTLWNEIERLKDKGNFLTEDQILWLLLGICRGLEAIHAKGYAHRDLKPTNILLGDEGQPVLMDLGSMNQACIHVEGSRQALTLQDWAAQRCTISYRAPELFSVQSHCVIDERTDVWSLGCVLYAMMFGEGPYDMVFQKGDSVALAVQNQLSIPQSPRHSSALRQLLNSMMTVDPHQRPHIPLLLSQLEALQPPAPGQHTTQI
# NLK, sequence (Q9UBE8 whole entry): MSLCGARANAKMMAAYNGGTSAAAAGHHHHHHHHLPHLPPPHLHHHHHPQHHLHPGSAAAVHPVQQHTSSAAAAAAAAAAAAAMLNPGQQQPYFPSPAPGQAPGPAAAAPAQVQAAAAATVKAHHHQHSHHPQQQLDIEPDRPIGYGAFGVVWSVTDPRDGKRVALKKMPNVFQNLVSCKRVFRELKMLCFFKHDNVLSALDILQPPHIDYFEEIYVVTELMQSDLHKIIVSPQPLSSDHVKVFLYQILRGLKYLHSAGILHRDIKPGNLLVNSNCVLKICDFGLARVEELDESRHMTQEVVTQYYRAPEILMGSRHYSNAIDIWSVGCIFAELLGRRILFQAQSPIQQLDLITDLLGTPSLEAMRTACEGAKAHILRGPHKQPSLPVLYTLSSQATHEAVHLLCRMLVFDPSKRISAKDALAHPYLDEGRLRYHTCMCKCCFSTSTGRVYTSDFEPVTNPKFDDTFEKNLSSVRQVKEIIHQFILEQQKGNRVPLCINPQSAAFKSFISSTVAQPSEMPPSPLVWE
# SGK3, sequence (Q96BR1 whole entry): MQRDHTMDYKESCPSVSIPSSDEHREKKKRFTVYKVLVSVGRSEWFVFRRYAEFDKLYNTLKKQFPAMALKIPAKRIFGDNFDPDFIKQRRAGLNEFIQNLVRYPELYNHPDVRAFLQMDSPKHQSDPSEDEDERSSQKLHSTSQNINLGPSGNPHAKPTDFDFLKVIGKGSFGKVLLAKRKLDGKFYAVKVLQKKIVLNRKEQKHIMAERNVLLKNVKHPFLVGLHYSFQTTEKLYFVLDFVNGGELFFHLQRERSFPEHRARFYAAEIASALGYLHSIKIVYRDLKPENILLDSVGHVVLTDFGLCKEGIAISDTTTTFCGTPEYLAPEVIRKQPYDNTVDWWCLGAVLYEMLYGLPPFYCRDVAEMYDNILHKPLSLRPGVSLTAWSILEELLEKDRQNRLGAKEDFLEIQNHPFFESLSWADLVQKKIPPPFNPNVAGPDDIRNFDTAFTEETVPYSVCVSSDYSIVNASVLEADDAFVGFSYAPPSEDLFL
# DCAMKL2, sequence (Q8N568 whole entry): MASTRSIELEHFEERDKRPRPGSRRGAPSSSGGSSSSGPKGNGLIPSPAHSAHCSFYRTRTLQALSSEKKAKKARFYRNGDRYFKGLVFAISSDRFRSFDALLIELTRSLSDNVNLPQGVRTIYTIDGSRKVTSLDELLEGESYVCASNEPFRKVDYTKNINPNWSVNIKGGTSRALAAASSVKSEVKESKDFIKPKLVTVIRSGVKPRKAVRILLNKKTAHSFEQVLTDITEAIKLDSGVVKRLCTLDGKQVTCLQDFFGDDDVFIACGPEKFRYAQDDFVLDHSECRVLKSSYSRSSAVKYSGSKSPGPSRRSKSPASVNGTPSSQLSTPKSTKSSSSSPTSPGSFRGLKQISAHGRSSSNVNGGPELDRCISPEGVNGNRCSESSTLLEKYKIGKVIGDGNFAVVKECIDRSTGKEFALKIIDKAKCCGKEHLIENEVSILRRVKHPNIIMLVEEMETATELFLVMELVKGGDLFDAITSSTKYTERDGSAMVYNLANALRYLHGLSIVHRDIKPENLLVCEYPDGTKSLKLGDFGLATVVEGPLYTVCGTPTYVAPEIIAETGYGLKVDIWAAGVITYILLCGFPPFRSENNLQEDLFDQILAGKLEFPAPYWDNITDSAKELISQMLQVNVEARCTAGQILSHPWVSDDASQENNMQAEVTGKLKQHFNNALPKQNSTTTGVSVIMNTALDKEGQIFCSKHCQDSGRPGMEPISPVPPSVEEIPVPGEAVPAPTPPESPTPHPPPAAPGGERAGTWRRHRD
# CSNK1A1L, sequence (Q8N752 whole entry): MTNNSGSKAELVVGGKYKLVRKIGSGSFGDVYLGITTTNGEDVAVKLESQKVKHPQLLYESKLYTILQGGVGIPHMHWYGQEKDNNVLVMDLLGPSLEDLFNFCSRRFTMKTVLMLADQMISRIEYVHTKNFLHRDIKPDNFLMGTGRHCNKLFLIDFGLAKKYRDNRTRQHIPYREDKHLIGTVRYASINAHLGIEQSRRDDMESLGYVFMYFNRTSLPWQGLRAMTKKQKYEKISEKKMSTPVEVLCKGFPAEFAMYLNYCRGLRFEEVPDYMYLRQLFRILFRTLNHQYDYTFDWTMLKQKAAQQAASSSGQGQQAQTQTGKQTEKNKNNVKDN
# PAK1, sequence (Q13153 whole entry): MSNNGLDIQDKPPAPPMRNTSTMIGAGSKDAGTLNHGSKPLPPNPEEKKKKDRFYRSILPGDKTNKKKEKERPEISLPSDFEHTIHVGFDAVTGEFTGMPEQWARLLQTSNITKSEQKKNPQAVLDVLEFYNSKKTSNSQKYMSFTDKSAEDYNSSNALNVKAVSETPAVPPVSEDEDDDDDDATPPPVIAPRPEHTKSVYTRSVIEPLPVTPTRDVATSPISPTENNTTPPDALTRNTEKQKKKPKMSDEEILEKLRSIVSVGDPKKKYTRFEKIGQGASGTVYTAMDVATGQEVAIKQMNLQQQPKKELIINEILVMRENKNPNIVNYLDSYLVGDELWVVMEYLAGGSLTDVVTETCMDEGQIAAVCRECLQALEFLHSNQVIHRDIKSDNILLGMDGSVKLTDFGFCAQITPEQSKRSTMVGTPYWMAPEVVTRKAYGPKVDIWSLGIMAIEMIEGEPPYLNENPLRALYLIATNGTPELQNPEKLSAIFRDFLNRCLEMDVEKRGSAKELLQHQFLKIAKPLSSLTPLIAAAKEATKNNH
# PAK4, sequence (O96013 whole entry): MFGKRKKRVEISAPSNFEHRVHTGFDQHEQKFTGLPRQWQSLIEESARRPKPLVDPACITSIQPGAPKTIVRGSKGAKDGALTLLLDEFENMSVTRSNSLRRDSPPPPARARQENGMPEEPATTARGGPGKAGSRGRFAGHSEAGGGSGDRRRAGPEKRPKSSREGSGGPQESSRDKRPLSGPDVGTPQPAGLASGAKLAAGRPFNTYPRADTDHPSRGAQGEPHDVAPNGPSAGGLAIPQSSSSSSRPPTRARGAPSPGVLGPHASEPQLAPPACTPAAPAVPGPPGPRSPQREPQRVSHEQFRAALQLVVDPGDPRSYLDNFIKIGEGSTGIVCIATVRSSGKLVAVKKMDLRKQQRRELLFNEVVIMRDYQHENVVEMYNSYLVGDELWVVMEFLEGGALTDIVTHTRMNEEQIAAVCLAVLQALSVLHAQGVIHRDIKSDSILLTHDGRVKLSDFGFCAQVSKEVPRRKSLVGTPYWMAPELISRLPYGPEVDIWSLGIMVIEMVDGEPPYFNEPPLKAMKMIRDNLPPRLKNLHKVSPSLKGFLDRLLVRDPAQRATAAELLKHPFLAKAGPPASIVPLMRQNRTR
# TAK1, sequence (O43318 whole entry): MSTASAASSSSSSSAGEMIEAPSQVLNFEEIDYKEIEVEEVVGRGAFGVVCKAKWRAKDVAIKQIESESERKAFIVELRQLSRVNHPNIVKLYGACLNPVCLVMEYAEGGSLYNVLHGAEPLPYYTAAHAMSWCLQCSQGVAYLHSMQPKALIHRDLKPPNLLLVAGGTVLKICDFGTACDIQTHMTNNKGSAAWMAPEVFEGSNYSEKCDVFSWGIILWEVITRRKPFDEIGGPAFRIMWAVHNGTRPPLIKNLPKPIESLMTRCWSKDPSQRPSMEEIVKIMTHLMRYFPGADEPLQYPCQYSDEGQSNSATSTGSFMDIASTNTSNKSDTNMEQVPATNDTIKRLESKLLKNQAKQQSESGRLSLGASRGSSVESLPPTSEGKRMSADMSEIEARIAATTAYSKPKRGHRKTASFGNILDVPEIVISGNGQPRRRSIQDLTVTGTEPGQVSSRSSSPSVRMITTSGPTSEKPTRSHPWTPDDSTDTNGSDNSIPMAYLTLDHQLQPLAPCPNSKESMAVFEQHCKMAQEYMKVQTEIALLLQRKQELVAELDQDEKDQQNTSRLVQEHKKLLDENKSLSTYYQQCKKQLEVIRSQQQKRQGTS
# NEK6, sequence (Q9HC98 whole entry): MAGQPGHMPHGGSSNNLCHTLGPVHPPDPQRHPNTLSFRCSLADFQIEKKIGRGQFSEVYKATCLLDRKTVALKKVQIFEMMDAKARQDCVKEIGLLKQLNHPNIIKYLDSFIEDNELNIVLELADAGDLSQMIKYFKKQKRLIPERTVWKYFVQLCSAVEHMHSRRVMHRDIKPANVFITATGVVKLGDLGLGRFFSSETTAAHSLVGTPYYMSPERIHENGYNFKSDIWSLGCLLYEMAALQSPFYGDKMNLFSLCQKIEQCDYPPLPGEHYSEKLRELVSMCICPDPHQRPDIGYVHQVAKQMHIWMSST
smiles,measurement,setting,value
"O=C1CCC(N2C(=O)c3cccc(NCCCCCCCCNC(=O)N4CC[C@H](NC5=Nc6cc(F)ccc6N(CC(F)F)c6ccc(Cl)cc65)C4)c3C2=O)C(=O)N1 (stereo partly drawn) [BJG-05-039, (3S)-3-((2-Chloro-5-(2,2-difluoroethyl)-8-fluoro-5H-dibenzo[b,e][1,4]diazepin-11-yl)amino)-N-(8-((2-(2,6-dioxopiperidin-3-yl)-1,3-dioxoisoindolin-4-yl)amino)octyl)pyrrolidine-1-carboxamide]",IC50,PAK4,> 10 µM
same,remaining binding at 10 µM,SLK,91%
same,remaining binding at 10 µM,STK16,62%
same,remaining binding at 10 µM,PIK3C2G,95%
same,remaining binding at 10 µM,CDKL3,98%
same,remaining binding at 10 µM,CSNK1G3,63%
same,remaining binding at 10 µM,HPK1,92%
same,remaining binding at 10 µM,NLK,53%
same,remaining binding at 10 µM,NEK6,91%
same,remaining binding at 10 µM,CSNK1A1L,83%
same,remaining binding at 10 µM,PIP5K1C,96%
same,remaining binding at 10 µM,TAK1,100%
same,remaining binding at 10 µM,PRKR,81%
same,remaining binding at 10 µM,FGFR2,77%
same,remaining binding at 10 µM,DCAMKL2,92%
same,remaining binding at 10 µM,SGK3,88%
same,Change in protein abundance,PAK1,significant downregulation of this kinase was not apparent
